Measured values from US20240382509A1, “Cannabinoids C- and O-glycosides possessing anti-proliferative and anti-metastatic properties and process for preparation thereof” (Council of Scientific and Industrial Research, priority 2021, published 2024).
pIC50: −log10 of the molar value. Where two headings read alike, the source gives them in different places.

Tests used:
[1] = test system: lung adenocarcinoma cells (A549); assay: MTT cell viability assay, A549; assay type: cell-based
Protocol: (§1) Cell viability assay: The cell viability was determined by the standard MTT assay method. Briefly, Panc-1, HCT-116, A549, PC3, MIAPaca-2, HT-29, MDA-MB-231, MCF7 cells, and fR2cells were seeded in 96 well tissue culture plates (Nunc) at a density of 4×10^3 cells per well and treated with varying concentrations of the test compounds in triplicates. DMSO was taken as a vehicle, and its final concentration was maintained at 0.2% in the culture medium. Doxorubicin was employed as a positive control. After 44 h of incubation, MTT dye solution was added into the medium, and cells were incubated for another 4 h at 37° C. in 5% CO2. The amount of colored formazan derivatives formed was measured by taking optical density (OD) using a microplate reader (TECAN, Infinite M200 Pro) at 570 nm, and the percentage of cell viability was calculated. The IC50 values were calculated using GraphPad Prism software (Version 5.0).

HCT-116 cells = assay: MTT cell viability assay, HCT-116; assay type: cell-based; details: for pIC50: colorectal adenocarcinoma cells
Protocol: as §1

Panc-1 cells [2] = assay: MTT cell viability assay, Panc-1; assay type: cell-based; details: for pIC50: pancreatic cancer cells
Protocol: as §1

PC3 cells = assay: MTT cell viability assay, PC3; assay type: cell-based
Protocol: as §1

[3] = test system: human colorectal adenocarcinoma cell line (HT-29); assay: MTT cell viability assay, HT-29; assay type: cell-based; details: for pIC50: human colorectal adenocarcinoma cell line
Protocol: as §1

MIAPaCa-2 cells [4] = assay: MTT cell viability assay, MIAPaCa-2; assay type: cell-based, human
Protocol: as §1

MCF-7 cells = assay: MTT cell viability assay, MCF-7; assay type: cell-based; details: breast cancer cell of epithelial origin
Protocol: as §1

MIAPaCa-2 cells [5] = assay: Cell scatter assay; assay type: cell-based, human; details: MIAPaCa-2, 1, 2, 3 μM, 36 h, compared to vehicle and parent molecule
Protocol: Cell scatter assay MIAPaCa-2 cells were seeded onto a 12 well plate at a seeding density of 500 cells/well and kept for 4-5 days, and there was the formation of scatter colonies since the cell line itself is a metastatic cell line. Accordingly, they were treated with 1 μM, 2 μM & 3 μM of compound 2, 2a, 2b, 3, 3a, 4, 4a & 4b for 36 h, and upon termination, they were washed with PBS and observed under an inverted microscope at 20× magnification (FIG. 3).

Panc-1 cells [6] = assay: Colony formation assay; assay type: cell-based; details: Panc-1, 1000 cells/well, 5 days, compared to corresponding parent compounds
Protocol: Colony formation assay. […] cells were seeded onto 6 well plates with a seeding density of 1000 cells/well. The cells after attachment were treated with 2 (2a, 2b), 3 (3a, 3b), 4 (4a, 4b) along with DMSO as a vehicle control and incubated for 5-6 days. After incubation, the plates were washed with ice-cold PBS, and the cells were fixed with methanol for 5 min. After fixing. the cells were stained with 0.2% crystal violet stain for 1 h. The cells were then washed with distilled water to remove the stain and were observed under an inverted microscope at 20× magnification.
The anti-proliferative properties of glycosidic derivatives were further analysed by colony formation assay in pancreatic cancer cells. The novel C-glycosidic derivatives of compounds 1, 2, 3 and 4 viz 1b, 2b, 3b & 4b display anti-proliferative property (FIG. 2). Panc-1cells were seeded onto 6 well plates at seeding density 1000 cells/well and treated with indicated concentration of 1b, 2b, 3b and 4b derivatives along with their parent compounds and DMSO as vehicle for 5 days. Upon termination the cells were stained with crystal violet and images of field were photographed.

[7] = MTT cell viability assay, fR2 normal epithelial cells; assay type: cell-based, human; details: human, fR2 normal epithelial cells; MTT, 48 h; normal epithelial cell line; read-out: Cytotoxicity (IC50) fR2
Protocol: as §1

[8] = test system: 4T1 mouse mammary carcinoma cells; assay: 4T1 allograft breast cancer model, anti-tumor and anti-metastatic efficacy; assay type: in vivo; details: tumor lysate immunoblot, 30 mg/kg
Protocol: In vivo anti-metastatic and anti-tumor efficacy studies. 4T1 mouse mammary carcinoma cells is a highly aggressive cell line that forms tumors when grafted in Balb/c mice. […] All the in vivo experimental protocols were approved by the Institutional Animal Ethics Committee, CPCSEA, of the Indian Institute of Integrative Medicine, Jammu. The animals were maintained at 22° C. with a 12 h light-dark cycle and free access to feed and water inside the institutional animal house. Proper care was taken to maintain them in a healthy condition and to avoid any risk of possible pathogenic contaminations. For subcutaneous implantation of 4T1 cells, the Balb/c mice were distributed into four groups bearing five mice in each group. For tumor induction, 1.5 million 4T1 cells were suspended in serum-free media and injected into the mammary pad of the animal and kept in the animal house for tumor induction. After the tumor reached an adequate size (30-150 mm^3) the mice in the allotted groups were treated with vehicle (normal saline), 15 and 30 mg/kg 2a & 30 mg/kg DIM (positive control) for every alternate day and was continued for two weeks. After the treatment, the mice were sacrificed by cervical dislocation, and the tumor was dissected out from the mammary pad, the tumor volume was measured, and images were taken. Subsequently, to examine the anti-metastatic property of the compound 2a, the chest cavity was dissected to remove the lungs, and after washing with PBS, the metastatic nodules in the lung due to 4T1 migration were checked and subsequently counted.
The anti-proliferative as well as anti-metastatic role of compound 2a was studied in 4T1 allograft breast cancer model. Briefly, 1.5×10^6 4T1 mammary breast cancer cells were injected in mouse mammary pad and kept undisturbed until the formation of tumor. Subsequently, the mice were treated with 15 and 30 mg/kg of compound 2a along with a positive control 30 mg/kg di-indoyl methane (DIM) molecule and normal saline as vehicle. The drugs were administered intraperitonially for each alternate day for 2 weeks. The animals were sacrificed and tumours were harvested from the mammary pad and tumor weight was measured (FIG. 7a & b). Moreover, the lungs were also removed and photographed to study the presence of metastatic patches. […] Furthermore, the tumors were subjected to tissue lysis and immunoblot analysis was performed to study the expression of Snail-1. Twist-1, STAT-3, Vimentin and E-cadherin.

[9] = MTT, 48 h, read-out: Cytotoxicity (IC50) A549
[10] = MTT, 48 h, read-out: Cytotoxicity (IC50) HCT-116
[11] = MTT, 48 h, read-out: Cytotoxicity (IC50) Panc-1
[12] = MTT, 48 h, read-out: Cytotoxicity (IC50) PC3
[13] = MTT, 48 h, read-out: Cytotoxicity (IC50) HT-29
[14] = MTT, 48 h, read-out: Cytotoxicity (IC50) MIAPaCa-2
[15] = MTT, 48 h, read-out: Cytotoxicity (IC50) MCF-7
[16] = Homo sapiens, A549, 48 h, MTT, 48 h, read-out: Cytotoxicity (IC50) A549
[17] = Homo sapiens, HCT-116, 48 h, MTT, 48 h, read-out: Cytotoxicity (IC50) HCT-116
[18] = Homo sapiens, PANC-1, 48 h, MTT, 48 h, read-out: Cytotoxicity (IC50) Panc-1
[19] = Homo sapiens, PC-3, 48 h, MTT, 48 h, read-out: Cytotoxicity (IC50) PC3
[20] = Homo sapiens, HT-29, 48 h, MTT, 48 h, read-out: Cytotoxicity (IC50) HT-29
[21] = Homo sapiens, MIA PaCa-2, 48 h, MTT, 48 h, read-out: Cytotoxicity (IC50) MIAPaCa-2
[22] = Homo sapiens, MCF7, 48 h, MTT, 48 h, read-out: Cytotoxicity (IC50) MCF-7

Structure (SMILES)	pIC50 [1, 9]	pIC50 (HCT-116 cells; [10])	pIC50 (Panc-1 cells [2]; [11])	pIC50 (PC3 cells; [12])	pIC50 [3, 13]	pIC50 (MIAPaCa-2 cells [4]; [14])	pIC50 (MCF-7 cells; [15])	cell scattering (MIAPaCa-2 cells [5])	anti-proliferative potential in colony formation assay (Panc-1 cells [6])	pIC50 [1, 16]	pIC50 (HCT-116 cells; [17])	pIC50 (Panc-1 cells [2]; [18])	pIC50 (PC3 cells; [19])	pIC50 [3, 20]	pIC50 (MIAPaCa-2 cells [4]; [21])	pIC50 (MCF-7 cells; [22])	other results
CCCCCc1cc(O)c2c(c1)OC(C)(C)[C@@H]1CCC(C)=C[C@@H]21 [Compound 2, Δ^9-tetrahydrocannabinol, reference compound]	4.93	4.72	4.68	< 4.00	< 4.00	5.35	4.37	–	–	–	–	–	–	–	–	–	–
CCCCCc1cc2c(c(O)c1[C@@H]1OC(CO)[C@@H](O)C(O)C1O)[C@@H]1C=C(C)CC[C@H]1C(C)(C)O2 (stereo partly drawn) [Compound 2b, Δ^9-tetrahydrocannabinol-2-C-β-D-glucopyranoside]	–	–	–	–	–	–	–	typical clumping of scatter cells	strong anti-proliferative potential	5.88	4.36	5.50	4.55	4.97	5.80	5.13	fold activity compared to parent compound, pancreatic cancer cells (Panc-1 cells [2]; ratio of IC50 parent vs derivative, Panc-1): 6.6 fold; fold anti-proliferative activity compared to parent compound, HT-29 ([3]; ratio of IC50 parent 2 vs derivative): more than 10 fold
CCCCCc1cc(O)c2c(c1)OC(C)(C)[C@@H]1CC=C(C)C[C@@H]21 [Compound 3, Δ^8-tetrahydrocannabinol, reference compound]	4.94	4.56	4.29	4.55	< 4.00	5.61	4.57	–	–	–	–	–	–	–	–	–	–
CCCCCc1cc(O[C@@H]2OC(CO)[C@@H](O)C(O)C2O)c2c(c1)OC(C)(C)c1ccc(C)cc1-2 (stereo partly drawn) [Compound 4a, Cannabinol-1-O-β-D-glucopyranoside]	–	–	–	–	–	–	–	typical clumping of scatter cells	–	–	–	–	–	–	–	–	IC50 at 48 h [7]: > 100 µM; pIC50 ([1]; Homo sapiens, A549, 48 h, read-out: Cytotoxicity (IC50) A549, MTT, 48 h): 5.52; pIC50 (HCT-116 cells; Homo sapiens, HCT-116, 48 h, read-out: Cytotoxicity (IC50) HCT-116, MTT, 48 h): 5.53; pIC50 (Panc-1 cells [2]; Homo sapiens, PANC-1, 48 h, read-out: Cytotoxicity (IC50) Panc-1, MTT, 48 h): 5.50; pIC50 (PC3 cells; Homo sapiens, PC-3, 48 h, read-out: Cytotoxicity (IC50) PC3, MTT, 48 h): 4.29; pIC50 ([3]; Homo sapiens, HT-29, 48 h, read-out: Cytotoxicity (IC50) HT-29, MTT, 48 h): 5.45; pIC50 (MIAPaCa-2 cells [4]; Homo sapiens, MIA PaCa-2, 48 h, read-out: Cytotoxicity (IC50) MIAPaCa-2, MTT, 48 h): 5.59; pIC50 (MCF-7 cells; Homo sapiens, MCF7, 48 h, read-out: Cytotoxicity (IC50) MCF-7, MTT, 48 h): 5.11
CCCCCc1cc2c(c(O)c1[C@@H]1OC(CO)[C@@H](O)C(O)C1O)-c1cc(C)ccc1C(C)(C)O2 (stereo partly drawn) [Compound 4b, Cannabinol-2-C-β-D-glucopyranoside]	–	–	–	–	–	–	–	typical clumping of scatter cells	strong anti-proliferative potential	4.65	5.52	4.86	4.41	4.94	5.08	4.37	fold anti-proliferative activity compared to parent compound, HCT-116 (HCT-116 cells; ratio of IC50 parent 4 vs derivative): > 15 fold
c1ccc2c(Cc3c[nH]c4ccccc34)c[nH]c2c1 [DIM, di-indoyl methane, reference compound]	–	–	–	–	–	–	–	–	–	–	–	–	–	–	–	–	tumor expression of Snail-1, STAT-3 and Vimentin (positive control) [8]: decreases significantly
